The structures appear in SMILES notation. Calls of active or inactive are those of the source. No cut-off for these calls is given here. Where only a bound is given, the exact number is not on record here.

The values below come from ChEMBL document CHEMBL2311349, “Evidence for a new binding mode to GSK-3: allosteric regulation by the marine compound palinurin” (Eur J Med Chem, 2013).

In data set [1] the target is T1, Glycogen synthase kinase-3 beta (Homo sapiens, UniProt P49841). In words: Inhibition of human recombinant GSK-3beta using GS2 peptide as substrate and [gamma33P]-ATP after 30 mins by scintillation counting.
Target sequence in this assay (P49841 whole entry): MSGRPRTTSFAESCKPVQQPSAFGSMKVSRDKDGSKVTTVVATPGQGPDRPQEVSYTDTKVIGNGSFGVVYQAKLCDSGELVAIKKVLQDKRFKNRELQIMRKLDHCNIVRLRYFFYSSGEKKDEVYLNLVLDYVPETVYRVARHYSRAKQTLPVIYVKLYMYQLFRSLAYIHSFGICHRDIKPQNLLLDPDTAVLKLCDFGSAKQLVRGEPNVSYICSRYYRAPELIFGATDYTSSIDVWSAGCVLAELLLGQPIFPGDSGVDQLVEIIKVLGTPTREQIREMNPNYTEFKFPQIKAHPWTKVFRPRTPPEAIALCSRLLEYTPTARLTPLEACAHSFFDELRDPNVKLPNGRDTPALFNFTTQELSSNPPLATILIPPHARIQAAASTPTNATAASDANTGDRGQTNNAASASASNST
Data set [2] in a line: Cytotoxicity against human SH-SY5Y cells assessed as intracellular LDH level after 18 hrs. It counts as cell-based.
Data set [3] has as its target T1, Glycogen synthase kinase-3 beta. In words: Inhibition of human recombinant GSK-3beta using GS2 peptide as substrate and [gamma33P]-ATP at 50 uM after 30 mins by scintillation counting.
Target sequence in this assay (P49841 whole entry, looked up): as the sequence (P49841 whole entry) above
In data set [4] the target is Cyclin-dependent kinase 1 (Homo sapiens, UniProt P06493). Description: Inhibition of human recombinant CDK1 using histone H1 as substrate and [gamma33P]-ATP after 15 mins by scintillation counting.
Data set [5] concerns the target Glycogen synthase kinase-3 alpha (Homo sapiens, UniProt P49840). Description: Inhibition of human recombinant GSK-3alpha using GS2 peptide as substrate and [gamma33P]-ATP after 12 mins by scintillation counting.
The target of data set [6] is Cyclin-dependent kinase 5 (Homo sapiens, UniProt Q00535). Description: Inhibition of human recombinant CDK5 using histone H1 as substrate and [gamma33P]-ATP after 20 mins by scintillation counting.
Data set [7] has as its target Casein kinase II (Homo sapiens, UniProt P67870+P68400+P19784). Description: (§1) Inhibition of human recombinant CK2 using GS2 peptide as substrate and [gamma33P]-ATP after 30 mins by scintillation counting. It counts as protein-complex assay.
The target of data set [8] is Casein kinase II (Homo sapiens, UniProt P19784+P67870+P68400). The data set is described as §1. It counts as protein-complex assay.
The nature of data set [9]: Inhibition of human recombinant MAPK using […] as substrate and [gamma33P]-ATP after 15 mins by scintillation counting.
Data set [10] has as its target T1, Glycogen synthase kinase-3 beta. Conditions: SH-SY5Y, 15 to 200 uM.
Target sequence in this assay (P49841 whole entry, looked up): as the sequence (P49841 whole entry) above
Description: Inhibition of GSK-3beta in human SH-SY5Y cells assessed as reduction of tau phosphorylation at 15 to 200 uM after 18 hrs by ELISA sandwich method

Chain of Cyclin-dependent kinase 1 (P06493 whole entry): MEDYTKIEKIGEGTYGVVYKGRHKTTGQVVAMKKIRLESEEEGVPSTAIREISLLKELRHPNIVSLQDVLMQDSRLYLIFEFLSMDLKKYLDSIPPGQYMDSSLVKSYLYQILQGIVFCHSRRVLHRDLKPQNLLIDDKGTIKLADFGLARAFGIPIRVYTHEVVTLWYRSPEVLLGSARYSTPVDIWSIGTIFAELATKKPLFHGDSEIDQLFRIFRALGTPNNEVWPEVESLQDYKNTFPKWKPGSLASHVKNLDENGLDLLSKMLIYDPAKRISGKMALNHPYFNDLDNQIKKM
Chain of Cyclin-dependent kinase 5 (Q00535 whole entry): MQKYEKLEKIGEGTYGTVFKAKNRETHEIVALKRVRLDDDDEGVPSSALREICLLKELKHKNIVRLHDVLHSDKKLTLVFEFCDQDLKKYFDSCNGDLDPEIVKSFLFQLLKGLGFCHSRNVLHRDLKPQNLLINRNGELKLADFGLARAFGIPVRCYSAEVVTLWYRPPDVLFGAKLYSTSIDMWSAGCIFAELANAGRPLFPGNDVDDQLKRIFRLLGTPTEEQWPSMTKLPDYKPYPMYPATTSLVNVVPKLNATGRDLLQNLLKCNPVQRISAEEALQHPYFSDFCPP
Chain of Casein kinase II (Homo sapiens, UniProt P19784+P67870+P68400) (P67870 whole entry): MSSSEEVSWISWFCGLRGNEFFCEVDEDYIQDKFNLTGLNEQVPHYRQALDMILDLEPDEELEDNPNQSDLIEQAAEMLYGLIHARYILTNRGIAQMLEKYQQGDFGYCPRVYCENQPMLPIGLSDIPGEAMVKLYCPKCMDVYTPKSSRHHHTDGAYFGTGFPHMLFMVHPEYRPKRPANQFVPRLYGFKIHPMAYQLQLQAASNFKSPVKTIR
Chain of Casein kinase II (Homo sapiens, UniProt P19784+P67870+P68400) (P68400 whole entry): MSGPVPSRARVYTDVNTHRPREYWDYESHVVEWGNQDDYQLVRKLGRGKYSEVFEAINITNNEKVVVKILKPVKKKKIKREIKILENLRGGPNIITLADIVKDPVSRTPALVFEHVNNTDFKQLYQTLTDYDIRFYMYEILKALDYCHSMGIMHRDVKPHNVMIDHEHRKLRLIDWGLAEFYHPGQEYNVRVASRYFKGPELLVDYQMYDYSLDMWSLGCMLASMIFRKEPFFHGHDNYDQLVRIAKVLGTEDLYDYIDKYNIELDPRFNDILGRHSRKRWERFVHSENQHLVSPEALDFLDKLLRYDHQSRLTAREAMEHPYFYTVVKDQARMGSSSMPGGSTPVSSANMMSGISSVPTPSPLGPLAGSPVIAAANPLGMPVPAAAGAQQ
Chain of Casein kinase II (Homo sapiens, UniProt P19784+P67870+P68400) (P19784 whole entry): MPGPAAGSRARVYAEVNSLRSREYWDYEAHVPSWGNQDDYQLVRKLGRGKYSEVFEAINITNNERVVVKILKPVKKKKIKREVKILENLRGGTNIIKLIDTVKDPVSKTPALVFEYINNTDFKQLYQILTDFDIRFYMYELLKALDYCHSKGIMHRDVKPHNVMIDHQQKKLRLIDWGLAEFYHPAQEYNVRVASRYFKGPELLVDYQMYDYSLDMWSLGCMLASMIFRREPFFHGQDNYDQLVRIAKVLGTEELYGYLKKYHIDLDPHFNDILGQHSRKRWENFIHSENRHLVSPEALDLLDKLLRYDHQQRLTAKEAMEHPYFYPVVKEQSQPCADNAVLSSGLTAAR
Chain of Casein kinase II (Homo sapiens, UniProt P67870+P68400+P19784) (P67870 whole entry): as the sequence (P67870 whole entry) above
Chain of Casein kinase II (Homo sapiens, UniProt P67870+P68400+P19784) (P68400 whole entry): as the sequence (P68400 whole entry) above
Chain of Casein kinase II (Homo sapiens, UniProt P67870+P68400+P19784) (P19784 whole entry): as the sequence (P19784 whole entry) above
Chain of Glycogen synthase kinase-3 alpha (P49840 whole entry): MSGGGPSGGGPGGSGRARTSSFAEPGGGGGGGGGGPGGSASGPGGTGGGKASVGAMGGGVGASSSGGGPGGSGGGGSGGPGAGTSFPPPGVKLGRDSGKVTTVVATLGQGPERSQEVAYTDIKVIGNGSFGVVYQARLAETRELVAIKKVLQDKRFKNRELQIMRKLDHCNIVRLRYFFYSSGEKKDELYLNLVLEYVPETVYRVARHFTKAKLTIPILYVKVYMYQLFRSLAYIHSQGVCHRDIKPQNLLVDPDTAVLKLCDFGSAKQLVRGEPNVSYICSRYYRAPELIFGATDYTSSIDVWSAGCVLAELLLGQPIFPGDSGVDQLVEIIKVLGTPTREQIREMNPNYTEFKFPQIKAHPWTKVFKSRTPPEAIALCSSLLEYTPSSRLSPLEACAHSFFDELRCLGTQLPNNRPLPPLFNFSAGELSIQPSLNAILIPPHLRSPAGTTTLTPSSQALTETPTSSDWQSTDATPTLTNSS

With `CC1=C(O)/C(=C/[C@H](C)CC/C=C(/C)CCCc2coc(Cc3ccoc3)c2)OC1=O` [IRCININ 2], the IC50 in data set [1] (read-out: IC50) stood at 2.3 µM.

On to `CC1=C(O)[C@@H](C/C(C)=C/CCC(C)/C=C/C=C(\C)CCCc2ccoc2)OC1=O` (stereo in doubt; B) [PALINURIN], for which the Activity entry in data set [2] is “Non-toxic”. For the same molecule, in data set [1] (read-out: IC50), the IC50 stood at 1.9 µM.

The term inhibition denotes the relative decrease from the control value, in per cent. Consider `CCCCCCCC(=O)OC[C@H](O)[C@H]1OC(=O)C(O)=C1O`, for which the IC50 is more than 50 µM in data set [1] (read-out: IC50) and more than 50.1 µM in data set [1] (read-out: pIC50 (converted)). Besides, the inhibition in [3] stood at 65%.

For the molecule `CCCCCCCCCC(=O)OC[C@H](O)[C@H]1OC(=O)C(O)=C1O`, the IC50 in data set [1] (read-out: IC50) was 6.1 µM. Also, in [3], the inhibition was 86%.

Usually pIC50 stands for the negative decadic logarithm of the IC50, by convention in mol/L. As for `CC1=C(O)[C@@H](C/C(C)=C/CCC(C)/C=C/C=C(\C)CCCc2ccoc2)OC1=O` (stereo in doubt; A) [PALINURIN], the IC50 is more than 100 µM in [4] (read-out: IC50); more than 100 µM in data set [4] (read-out: pIC50 (converted)); 1.6 µM in data set [5]; 2.6 µM in data set [1] (read-out: IC50); more than 25 µM in data set [6] (read-out: IC50); more than 25.1 µM in data set [6] (read-out: pIC50 (converted)). Further, the IC50 (on Casein kinase II [7]; on Casein kinase II [8]; in data set [9]) was more than 100 µM throughout. In [9], the pIC50 is listed as less than 4.

Turning to `CC1=C(O)/C(=C/[C@H](C)CCC/C(C)=C/CCc2coc(Cc3ccoc3)c2)OC1=O` [IRCININ 1], the IC50 in data set [1] (read-out: IC50) stood at 0.8 µM.

For `CC1=C(O)[C@@H](C/C(C)=C/CCC(C)/C=C/C=C(\C)CCCc2ccoc2)OC1=O` (stereo in doubt; A), the inhibition result in data set [10] is “Active”.

Turning to `O=C1O[C@H]([C@@H](O)CO)C(O)=C1O`, in data set [3], the inhibition was 80%.

For the molecule `CCCCCCCCCCCCCC(=O)OC[C@H](O)[C@H]1OC(=O)C(O)=C1O`, the IC50 in data set [1] (read-out: IC50) was more than 5.8 µM; in data set [1] (read-out: pIC50 (converted)) it was 5.75 µM.

Take `CC1=C(O)[C@@H](C/C(C)=C/CCC(C)/C=C/C=C(\C)CCCc2ccoc2)OC1=O` (stereo in doubt; B): the inhibition result in [10] is “Active”.
